Results from patent US20250215039A1, “NUCLEOSIDES FOR TREATING CANCER” (PRIMEFOUR THERAPEUTICS, INC., priority 2022, published 2025).
Read-outs that look alike come from different tables or passages of the source.

Tested on: cancer cell lines
Experiment: Cancer cell proliferation activity (CellTiterGlo, 72 h)
Format: cell-based
Conditions: 72 h, 72 h, read-out: IC50
In short: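 Cells seeded overnight at 37 °C, then dosed with compound at 0.1% final DMSO and incubated 72 h at 37 °C (5% or 10% CO2 by medium).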

SMILES: CCC[C@]1(CO)O[C@@H](n2cnc3c(N)nc(F)nc32)C[C@@H]1O [Cpd. No. 129, (2R,3S,5R)-5-(6-amino-2-fluoro-9H-purin-9-yl)-2-(hydroxymethyl)-2-propyltetrahydrofuran-3-ol]
- IC50 (5637 cell line (bladder)): 0.56 µM
- IC50 (AS49 cell line (lung)): 3.01 µM
- IC50 (CLS439 cell line (bladder)): 3.26 µM
- IC50 (HS729 cell line (muscle)): 0.87 µM
- IC50 (JAR cell line (placenta)): 0.32 µM
- IC50 (Homo sapiens, 22Rv1, 72 h, 22RV1 cell line (prostate)): 1.08 µM
- IC50 (Homo sapiens, 786-0, 72 h, 786O cell line (kidney)): 0.3 µM
- IC50 (Homo sapiens, A204, 72 h, A204 cell line (muscle)): 0.22 µM
- IC50 (Homo sapiens, A673, 72 h, A673 cell line (bone)): 1.44 µM
- IC50 (Homo sapiens, A2780, 72 h, A2780 cell line (ovary)): 0.74 µM
- IC50 (Homo sapiens, A-375, 72 h, A375 cell line (skin)): 0.2 µM
- IC50 (Homo sapiens, A-431, 72 h, A431 cell line (skin)): 0.33 µM
- IC50 (Homo sapiens, ACHN, ACHN cell line (kidney)): 2.54 µM
- IC50 (Homo sapiens, ASPC1, 72 h, ASPC1 cell line (pancreas)): 0.22 µM
- IC50 (Homo sapiens, BT-20, 72 h, BT20 cell line (breast)): 0.34 µM
- IC50 (Homo sapiens, BXPC-3, 72 h, BXPC3 cell line (pancreas)): 2.53 µM
- IC50 (Homo sapiens, C-33-A, C33A cell line (cervical)): 0.63 µM
- IC50 (Homo sapiens, CAKI-1, 72 h, CAKI1 cell line (kidney)): 0.02 µM
- IC50 (Homo sapiens, COLO 205, 72 h, COLO205 cell line (colon)): 0.76 µM
- IC50 (Homo sapiens, COLO-678, 72 h, COLO678 cell line (colon)): 1.99 µM
- IC50 (Homo sapiens, Ca-Ski, CASKI cell line (cervical)): 0.16 µM
- IC50 (Homo sapiens, Caco-2, 72 h, CACO2 cell line (colon)): 0.61 µM
- IC50 (Homo sapiens, Calu-6, 72 h, CALU6 cell line (lung)): 0.3 µM
- IC50 (Homo sapiens, DLD-1, 72 h, DLD1 cell line (colon)): 2.03 µM
- IC50 (Homo sapiens, DU-145, 72 h, DU145 cell line (prostate)): 0.12 µM
- IC50 (Homo sapiens, EFO-21, 72 h, EFO21 cell line (ovary)): 0.33 µM
- IC50 (Homo sapiens, EJ-28, 72 h, EJ28 cell line (bladder)): 0.22 µM
- IC50 (Homo sapiens, Granta-519, 72 h, GRANTA-519 cell line (hematological)): 2.6 µM
- IC50 (Homo sapiens, HCT-15, 72 h, HCT15 cell line (colon)): 1.46 µM
- IC50 (Homo sapiens, HCT-116, 72 h, HCT116 cell line (colon)): 0.48 µM
- IC50 (Homo sapiens, HEK293, 72 h, HEK293 cell line (kidney)): 0.38 µM
- IC50 (Homo sapiens, HL-60, 72 h, HL-60 cell line (hematological)): 0.33 µM
- IC50 (Homo sapiens, HT-29, 72 h, HT29 cell line (colon)): 0.22 µM
- IC50 (Homo sapiens, HT-1080, 72 h, HT1080 cell line (connective tissue)): 3.63 µM
- IC50 (Homo sapiens, HeLa, HELA cell line (cervical)): 0.44 µM
- IC50 (Homo sapiens, HepG2, 72 h, HEPG2 cell line (liver)): 0.3 µM
- IC50 (Homo sapiens, Hs-578T, HS578T cell line, breast): 0.55 µM
- IC50 (Homo sapiens, IGROV-1, 72 h, IGROV1 cell line (ovary)): 0.2 µM
- IC50 (Homo sapiens, IMR-90, 72 h, IMR90 cell line, lung): 0.41 µM
- IC50 (Homo sapiens, J82, 72 h, J82 cell line (bladder)): 0.47 µM
- IC50 (Homo sapiens, JEG-3, 72 h, JEG3 cell line (placenta)): 0.29 µM
- IC50 (Homo sapiens, JIMT-1, 72 h, JIMT1 cell line (breast)): 0.08 µM
- IC50 (Homo sapiens, K562, 72 h, K-562 cell line (hematological)): 5.37 µM
- IC50 (Homo sapiens, Kasumi 1, 72 h, KASUMI-1 cell line (hematological)): 0.06 µM
- IC50 (Homo sapiens, L-363, 72 h, L-363 cell line (hematological)): 0.29 µM
- IC50 (Homo sapiens, LoVo, LOVO cell line (colon)): 0.14 µM
- IC50 (Homo sapiens, MCF7, 72 h, MCF7 cell line (breast)): 9.7 µM
- IC50 (Homo sapiens, MDA-MB-231, 72 h, MDAMB231 cell line (breast)): 2.85 µM
- IC50 (Homo sapiens, MDA-MB-435, 72 h, MDAMB435 cell line (skin)): 1.4 µM
- IC50 (Homo sapiens, MDA-MB-436, 72 h, MDAMB436 cell line (breast)): 0.19 µM
- IC50 (Homo sapiens, MDA-MB-468, 72 h, MDAMB468 cell line (breast)): 0.27 µM
- IC50 (Homo sapiens, MG-63, 72 h, MG63 cell line (bone)): > 50 µM
- IC50 (Homo sapiens, MHH-ES-1, 72 h, MHHES1 cell line (bone)): 0.4 µM
- IC50 (Homo sapiens, MIA PaCa-2, 72 h, MIAPACA2 cell line (pancreas)): > 50 µM
- IC50 (Homo sapiens, MINO, MINO cell line (hematological)): 0.15 µM
- IC50 (Homo sapiens, MV4-11, 72 h, MV4-11 cell line (hematological)): 0.05 µM
- IC50 (Homo sapiens, NCI-H23, 72 h, NCI-H23 cell line (lung)): 0.41 µM
- IC50 (Homo sapiens, NCI-H82, 72 h, NCIH82 cell line (lung)): 0.39 µM
- IC50 (Homo sapiens, NCI-H292, 72 h, NCIH292 cell line (lung)): 4.17 µM
- IC50 (Homo sapiens, NCI-H460, 72 h, NCIH460 cell line (lung)): 0.5 µM
- IC50 (Homo sapiens, OVCAR-3, 72 h, OVCAR3 cell line (ovary)): 0.17 µM
- IC50 (Homo sapiens, OVCAR-4, 72 h, OVCAR4 cell line (ovary)): 0.56 µM
- IC50 (Homo sapiens, PANC-1, 72 h, PANC1 cell line (pancreas)): > 50 µM
- IC50 (Homo sapiens, PC-3, 72 h, PC3 cell line (prostate)): 0.47 µM
- IC50 (Homo sapiens, PLC-PRF-5, 72 h, PLCPRF5 cell line (liver)): 2.02 µM
- IC50 (Homo sapiens, Panc1005, 72 h, PANC1005 cell line (pancreas)): 0.23 µM
- IC50 (Homo sapiens, RD, RD cell line (muscle)): 0.64 µM
- IC50 (Homo sapiens, Ramos, RAMOS cell line (hematological)): 0.52 µM
- IC50 (Homo sapiens, SAOS-2, 72 h, SAOS2 cell line (bone)): 0.3 µM
- IC50 (Homo sapiens, SF-268, 72 h, SF268 cell line (brain)): 5.03 µM
- IC50 (Homo sapiens, SF-295, 72 h, SF295 cell line (brain)): 1.65 µM
- IC50 (Homo sapiens, SK-BR-3, 72 h, SKBR3 cell line (breast)): 0.05 µM
- IC50 (Homo sapiens, SK-HEP1, 72 h, SKHEP1 cell line (liver)): 2.41 µM
- IC50 (Homo sapiens, SK-LMS-1, 72 h, SKLMS1 cell line (uterus)): 0.3 µM
- IC50 (Homo sapiens, SK-MEL-5, 72 h, SKMEL5 cell line, skin): 3.17 µM
- IC50 (Homo sapiens, SK-MEL-28, 72 h, SKMEL28 cell line (skin)): 0.68 µM
- IC50 (Homo sapiens, SK-N-AS, SKNAS cell line (brain)): 0.37 µM
- IC50 (Homo sapiens, SK-N-SH, SKNSH cell line (brain)): 0.26 µM
- IC50 (Homo sapiens, SK-OV-3, 72 h, SKOV3 cell line (ovary)): 0.46 µM
- IC50 (Homo sapiens, SNB-75, 72 h, SNB75 cell line (brain)): 1.38 µM
- IC50 (Homo sapiens, SU-DHL10, 72 h, SU-DHL-10 cell line (hematological)): 0.46 µM
- IC50 (Homo sapiens, SU-DHL-6, 72 h, SU-DHL-6 cell line (hematological)): 0.24 µM
- IC50 (Homo sapiens, SW-620, 72 h, SW620 cell line (colon)): 0.36 µM
- IC50 (Homo sapiens, T-24, 72 h, T24 cell line (bladder)): 0.6 µM
- IC50 (Homo sapiens, TE-671, 72 h, TE671 cell line (muscle)): 2.44 µM
- IC50 (Homo sapiens, THP-1, 72 h, THP-1 cell line (hematological)): 2.27 µM
- IC50 (Homo sapiens, U2OS, U2OS cell line (bone)): 0.51 µM
- IC50 (Homo sapiens, U-87 MG, U87MG cell line (brain)): 3.13 µM
- IC50 (Homo sapiens, UMUC3, 72 h, UMUC3 cell line (bladder)): 3.04 µM
- IC50 (Homo sapiens, UO-31, 72 h, UO31 cell line (kidney)): 0.24 µM
- IC50 (Homo sapiens, WSU-NHL, WSU-NHL cell line (hematological)): 0.46 µM
- IC50 (MT-3, 72 h, MT3 cell line (breast)): 0.28 µM
- IC50 (NCI-H358M, NCIH358M cell line (lung)): 0.27 µM
- IC50 (PBMC, PBMC (hematological)): > 50 µM
- IC50 (RD-ES, RDES cell line (bone)): 0.25 µM
